Patent US20240239755A1, “SUBSTITUTED PYRIDAZINONES, SALTS OR N-OXIDES THEREOF AND THEIR USE AS HERBICIDALLY ACTIVE SUBSTANCES” (Bayer Aktiengesellschaft, priority 2021, published 2024)

Legend:
Type in all cases: in vivo
[1] = test system: Amaranthus retroflexus (AMARE); assay: Herbicidal post-emergence action, 320 g/ha, AMARE; conditions: visual grading after ca. 3 weeks
Description: (§1) Seeds of mono- and dicotyledonous weed plants were sown in plastic pots (double sowings with one species of mono- and one species of dicotyledonous weed plants per pot), in sandy loam, covered with soil and grown under controlled growth conditions. 2 to 3 weeks after sowing, the test plants were sprayed in the single-leaf stage. The compounds according to the invention, formulated in the form of wettable powders (WP) or as emulsifiable concentrates (EC), were sprayed onto the green plant parts as an aqueous suspension or as an emulsion, with the addition of 0.5% of an additive, at an application rate of 600 litres of water per hectare (converted). The test plants were placed in the greenhouse for ca. 3 weeks under optimum growth conditions, and then the effect of the preparations was assessed visually in comparison with untreated controls (herbicidal effect in percent (%): 100% effect=plants have died, 0% effect=as control plants).
(§2) Tables D1 to D8 below, show the effects of selected compounds of the general formula (I) according to Table 1 on various harmful plants using an application rate corresponding to 320 g/ha obtained by the experimental procedure mentioned above.

Kochia scoparia (KCHSC) [2] = assay: Herbicidal post-emergence action, 1280 g/ha (Table B4); conditions: visual assessment after ca. 3 weeks vs untreated controls
Description: as §1, with “plants). Tables B1 to B11 below, show the effects of selected compounds of the general formula (I) according to Table 1 on various harmful plants using an application rate corresponding to 1280 g/ha obtained by the experimental procedure mentioned above.” for “plants).”

[3] = test system: Amaranthus retroflexus (AMARE); assay: Herbicidal post-emergence action, 1280 g/ha, AMARE; conditions: visual grading vs untreated controls
Description: as §1
(§3) Tables B1 to B11 below, show the effects of selected compounds of the general formula (I) according to Table 1 on various harmful plants using an application rate corresponding to 1280 g/ha obtained by the experimental procedure mentioned above.

Lolium rigidum (LOLRI) = assay: Herbicidal pre-emergence action, 1280 g/ha (Table A5); conditions: visual grading after ca. 3 weeks vs untreated controls
Description: (§4) Seeds of mono- and dicotyledonous weed plants were sown in plastic pots (double sowings with one species of mono- and one species of dicotyledonous weed plants per pot), in sandy loam, and covered with soil. The compounds according to the invention, formulated in the form of wettable powders (WP) or as emulsifiable concentrates (EC), were applied to the surface of the covering soil as an aqueous suspension or as an emulsion, with the addition of 0.5% of an additive, at an application rate of 600 litres of water per hectare (converted). Following treatment, the pots were placed in a greenhouse and kept under optimum growth conditions for the test plants. The visual grading of the damage to the test plants was carried out after ca. 3 weeks in comparison to untreated controls (herbicidal effect in percent (%): 100% effect=plants have died, 0% effect=as control plants). Tables A1 to A11 below, show the effects of selected compounds of the general formula (I) according to Table 1 on various harmful plants and an application rate corresponding to 1280 g/ha obtained by the experimental procedure mentioned above.

Veronica persica (VERPE) = assay: Herbicidal post-emergence action, 1280 g/ha, VERPE; conditions: visual grading vs untreated controls
Description: as §1, §3

[4] = test system: Abutilon theophrasti (ABUTH); assay: Herbicidal post-emergence action, 1280 g/ha (Table B1); conditions: visual assessment after ca. 3 weeks vs untreated controls
Description: as §1, with “plants). Tables B1 to B11 below, show the effects of selected compounds of the general formula (I) according to Table 1 on various harmful plants using an application rate corresponding to 1280 g/ha obtained by the experimental procedure mentioned above.” for “plants).”

Stellaria media (STEME) [5] = assay: Herbicidal post-emergence action, 1280 g/ha (Table B9); conditions: visual assessment after ca. 3 weeks vs untreated controls
Description: as §1, with “plants). Tables B1 to B11 below, show the effects of selected compounds of the general formula (I) according to Table 1 on various harmful plants using an application rate corresponding to 1280 g/ha obtained by the experimental procedure mentioned above.” for “plants).”

Stellaria media (STEME) [6] = assay: Herbicidal post-emergence action, 320 g/ha, STEME; conditions: visual grading after ca. 3 weeks
Description: as §1, §2

Stellaria media (STEME) [7] = assay: Herbicidal pre-emergence action, 1280 g/ha (Table A9); conditions: visual grading after ca. 3 weeks vs untreated controls
Description: as §4

Stellaria media (STEME) [8] = assay: Herbicidal pre-emergence action, 320 g/ha, STEME; conditions: visual grading after ca. 3 weeks
Description: as §4, with “plants).” for “plants). Tables A1 to A11 below, show the effects of selected compounds of the general formula (I) according to Table 1 on various harmful plants and an application rate corresponding to 1280 g/ha obtained by the experimental procedure mentioned above.”
Tables C1 to C6 below, show the effects of selected compounds of the general formula (I) according to Table 1 on various harmful plants using an application rate corresponding to 320 g/ha obtained by the experimental procedure mentioned above.

[9] = test system: Matricaria inodora (MATIN); assay: Herbicidal post-emergence action, 1280 g/ha (Table B6); conditions: visual assessment after ca. 3 weeks vs untreated controls
Description: as §1, with “plants). Tables B1 to B11 below, show the effects of selected compounds of the general formula (I) according to Table 1 on various harmful plants using an application rate corresponding to 1280 g/ha obtained by the experimental procedure mentioned above.” for “plants).”

Kochia scoparia (KCHSC) [10] = assay: Herbicidal pre-emergence action, 1280 g/ha (Table A4); conditions: visual grading after ca. 3 weeks vs untreated controls
Description: as §4

[11] = test system: Amaranthus retroflexus (AMARE); assay: Herbicidal pre-emergence action, 1280 g/ha (Table A11); conditions: visual grading after ca. 3 weeks vs untreated controls
Description: as §4

[12] = test system: Abutilon theophrasti (ABUTH); assay: Herbicidal post-emergence action, 320 g/ha, ABUTH; conditions: visual grading after ca. 3 weeks
Description: as §1, §2

[13] = test system: Matricaria inodora (MATIN); assay: Herbicidal pre-emergence action, 1280 g/ha (Table A6); conditions: visual grading after ca. 3 weeks vs untreated controls
Description: as §4

SMILES	herbicidal effect AMARE [1] [%]	herbicidal effect KCHSC (Kochia scoparia (KCHSC) [2]) [%]	herbicidal effect AMARE [3] [%]	herbicidal effect LOLRI (Lolium rigidum (LOLRI)) [%]	herbicidal effect VERPE (Veronica persica (VERPE)) [%]	herbicidal effect ABUTH [4] [%]	herbicidal effect STEME (Stellaria media (STEME) [5]) [%]	herbicidal effect STEME (Stellaria media (STEME) [6]) [%]	herbicidal effect STEME (Stellaria media (STEME) [7]) [%]	herbicidal effect STEME (Stellaria media (STEME) [8]) [%]	herbicidal effect MATIN [9] [%]	herbicidal effect KCHSC (Kochia scoparia (KCHSC) [10]) [%]	herbicidal effect AMARE [11] [%]	herbicidal effect ABUTH [12] [%]	herbicidal effect MATIN [13] [%]
Cc1nn(C)c(=O)c(Oc2c(F)cccc2C2CC2)c1O [Example I-084]	90	90	90	90	90	90	90	–	–	–	–	–	–	–	–
CCOC(=O)Oc1c(C)nn(C)c(=O)c1Oc1ccc(C)cc1C1CC1 [Example I-038]	–	–	90	–	–	90	–	–	–	–	–	–	–	–	–
Cc1nn(C)c(=O)c(Oc2cc(Cl)cc(Cl)c2Cl)c1OC(=O)C(C)C [Example I-100]	–	–	90	90	–	90	100	90	100	100	–	–	–	–	–
Cc1nn(C)c(=O)c(Oc2ccc(Cl)cc2C2CC2)c1O [Example I-035]	90	90	90	–	90	90	90	–	–	–	90	100	90	90	–
Cc1nn(C)c(=O)c(Oc2ccccc2OC(F)F)c1O [Example I-082]	–	–	90	90	90	100	100	90	90	–	90	–	–	90	90
CCOC(=O)Oc1c(C)nn(C)c(=O)c1Oc1cccc(C)c1C1CC1 [Example I-066]	–	–	–	–	–	90	100	–	–	–	90	–	100	–	90
Cc1nn(C)c(=O)c(Oc2cccc(Cl)c2)c1O [Example I-004]	–	–	–	–	–	90	100	90	–	–	–	90	90	–	–
Cc1cccc(Cl)c1Oc1c(O)c(C)nn(C)c1=O [Example I-023]	–	–	90	–	–	–	90	–	90	–	–	–	90	–	90
Cc1nn(C)c(=O)c(Oc2cc(F)cc(F)c2Br)c1OC(=O)C(C)C [Example I-099]	–	90	90	–	90	100	90	90	90	90	90	–	–	–	90
Cc1nn(C)c(=O)c(Oc2cccc(C(F)(F)F)c2)c1O [Example I-005]	90	–	100	–	–	–	90	–	–	–	–	–	100	–	–
CCOC(=O)Oc1c(C)nn(C)c(=O)c1Oc1cc(C)ccc1C1CC1 [Example I-040]	–	–	90	–	–	–	–	–	–	–	–	–	–	–	–
Cc1nn(C)c(=O)c(Oc2ccccc2)c1O [Example I-001]	–	–	–	–	–	–	–	–	–	–	–	–	90	–	–
Cc1nn(C)c(=O)c(Oc2cccc(F)c2Cl)c1O [Example I-025]	–	–	–	–	–	–	–	–	100	100	–	–	–	–	100
COc1ccccc1Oc1c(O)c(C)nn(C)c1=O [Example I-024]	–	–	90	90	90	–	90	–	90	–	–	–	–	–	–
Cc1ccc(C2CC2)c(Oc2c(O)c(C)nn(C)c2=O)c1 [Example I-039]	–	–	90	–	–	–	90	–	–	–	–	–	90	–	–
Cc1ccc(Oc2c(O)c(C)nn(C)c2=O)c(C2CC2)c1 [Example I-037]	–	–	–	–	–	–	90	–	–	–	–	–	–	–	–
Cc1nn(C)c(=O)c(Oc2ccccc2Br)c1O [Example I-011]	–	90	90	90	–	–	–	–	100	90	–	100	100	–	90
Cc1nn(C)c(=O)c(Oc2cc(F)cc(F)c2Br)c1O [Example I-090]	–	–	90	90	–	–	90	–	100	90	90	–	90	–	90
Cc1nn(C)c(=O)c(Oc2cc(F)ccc2Br)c1OC(=O)C(C)C [Example I-089]	–	–	100	90	–	90	–	–	90	–	90	–	–	–	100
Cc1nn(C)c(=O)c(Oc2cccc(F)c2C2CC2)c1O [Example I-073]	–	90	90	90	–	100	100	–	90	90	90	–	–	100	90
